# Test results reported in patent US20140037583A1, “METHODS AND COMPOSITIONS SUITABLE FOR PREVENTING AND TREATING HYPERLEPTINEMIA” (priority 2011, published 2014).
# Tested on: Leptin mRNA in terminally differentiated canine adipocytes
# Assay: Expression of leptin mRNA in canine adipocytes treated with Equol (quantitative PCR)
# Assay type: cell-based
# Conditions: 24 hours, n=3
# Procedure: Treatment: Terminally differentiated canine adipocytes were exposed to 200, 25, and 0 uM Equol for 24 hours. Cells were collected for RNA isolation.
# RNA Isolation: Treatment cell samples were vortexed and homogenized using a Quiashredder (Qiagen, Valencia, Calif.) column according to manufacturer's directions. The homogenized lysate was collected and 1 equal volume of 64% ethanol was added to it. This mixture was then applied to an RNAqueous™ filter cartridge, (Ambion Inc., Austin, Tex.) 700 uL at a time, and centrifuged for one minute at 10,000 rpm. The cartridge was washed using 700 uL wash solution #1 and 500 uL wash solution #2/3 with centrifugation at 10,000 rpm for one minute for each wash. The filter cartridge was dried by centrifugation (10,000 rpm) for one minute. […] The resulting RNA was DNAse-treated and quantitated in a Beckman DU 640B spectrophotometer (Beckman Coulter, Inc., Brea, Calif.) at 260 nm. Additionally, quantity and quality were assessed using a bioanalyzer (Agilent, Santa Clara, Calif.) according to manufacturer's directions.
# Quantitative PCR: All samples were run singularly against each primer/probe set to determine what standard curve(s) should be used. […] Values were normalized to cyclophilin A (PPIA) levels as determined by quantitative PCR. Inductions were calculated from each of the lowest sample's normalized value. […]
smiles,measurement,setting,value
Oc1ccc([C@H]2COc3cc(O)ccc3C2)cc1 [Equol],"Leptin mRNA expression (normalized to cyclophilin A, induction relative to lowest sample)",25 uM Equol,2.58
same,"Leptin mRNA expression (normalized to cyclophilin A, induction relative to lowest sample)",200 uM Equol,1.40
